Source: patent US6506936B1, “N-substituted arylsulfonylamino hydroxamic acids useful as inhibitors of c-proteinase and for treating or preventing disorders related to unregulated collagen production” (FibroGen, Inc., priority 1999, dated 2003)

Test system: human foreskin fibroblasts
Assay: Cytotoxicity: metabolic activity (WST-1) of quiescent fibroblasts exposed to inhibitor
Type: cell-based
Details: 25 μM compound, 0.5% DMSO, 48 hours, 60% or below = very sick or dead
Experimental: C-proteinase inhibitors were studied in cytotoxicity assays wherein quiescent cells were exposed to C-proteinase inhibitors for a given time and cell viability measured. By examining cellular metabolic activity, cell viability and cell survival were determined.
C-proteinase inhibitors were tested on human foreskin fibroblasts that had been grown to confluence in 96 well microtiter plates in Dulbecco's Modified Eagle Medium (DMEM) containing 10% fetal calf serum. Shortly before adding the inhibitors, the media was removed and 90 μl per microtiter well of fresh serum-free DMEM was added to the cells. The C-proteinase inhibitors were made up as concentrated stocks containing compound at 250 μM in the presence of 5% DMSO as solvent. A concentrated stock of 10 μl was added to each microtiter well to give a final compound concentration of 25 μM in the presence of 0.5% DMSO. The cells were incubated in the presence of the C-proteinase inhibitor for 48 hours, and then cell viability and survival were measured as a function of metabolic activity. To examine cellular metabolic activity, 10 μl of WST-1 reagent (Boehringer Mannheim) was added to each well of a 96 well microtiter plate containing quiescent cells that were already in media. The plate was incubated at 37° C. for 120 minutes and removed. The absorbance at 450 nm-650 nm was recorded. […] Controls included untreated healthy cells, and cells killed with 0.1% saponin.
Cytotoxicity was evaluated as a function of cellular survival. Cellular survival was determined by measuring the metabolic activity of the quiescent cells after exposure to the C-proteinase inhibitors. To determine the metabolic activity of the cells, the color change of a trazolium dye over time was examined according to Mossmann, […], Immunol. Methods 65:66; Carmichael, 1987, Cancer Res 47:936, incorporated herein by reference. Healthy cells cleaved the dye producing a colored product that can be quantitated. […] Dead cells had no metabolic activity and no effect on the dye was shown.
The amount of dye cleaved by cells that had been incubated with inhibitor, expressed as a percentage relative to untreated cells, is shown in TABLE 2. Cells that register at 60% or below are considered either very sick or dead. Control cells that were intentionally killed give a value of close to 20%.

SMILES | Percent Metabolic Activity of Fibroblasts Exposed To Various C-Proteinase Inhibitors Relative to Untreated Fibroblasts
N/C(=N\O)c1ccc(S(=O)(=O)N(CCC(=O)NO)CCc2cccs2)cc1 [Compound 1409] | 108.8%
COc1ccc(S(=O)(=O)N(CCC(=O)NO)Cc2ccc3c(c2)OCO3)cc1OC [Compound 1410] | 108.6%
CC(=O)Nc1ccc(S(=O)(=O)N(CCC(=O)NO)CCc2cccs2)cc1 [Compound 1411] | 108.2%
O=C(CCN(CCc1cccs1)S(=O)(=O)Cc1ccccc1)NO [Compound 1414] | 112.6%
CCCCOc1ccc(S(=O)(=O)N(CCC(=O)NO)CCc2cccs2)cc1 [Compound 1416] | 92.8%
O=C(CCN(CCc1cccs1)S(=O)(=O)c1ccc(Br)s1)NO [Compound 1417] | 120.3%
O=C(CCN(CCc1cccs1)S(=O)(=O)c1ccc(S(=O)(=O)c2ccccc2)s1)NO [Compound 1419] | 104.7%
O=C(CCN(CCc1cccs1)S(=O)(=O)c1cccs1)NO [Compound 1425] | 109.5%
COc1ccc(CCN(CCC(=O)NO)S(=O)(=O)c2cccc(/C(N)=N/O)c2)cc1 [Compound 1456] | 106.8%
N/C(=N\O)c1cccc(S(=O)(=O)N(CCC(=O)NO)CCc2cccs2)c1 [Compound 1457] | 107.4%
N/C(=N\O)c1cccc(S(=O)(=O)N(CCC(=O)NO)Cc2ccc3c(c2)OCO3)c1 [Compound 1458] | 111.0%
CS(=O)(=O)c1ccc(S(=O)(=O)N(CCC(=O)NO)CCc2cccs2)cc1 [Compound 1463] | 110.0%
CS(=O)(=O)c1ccc(S(=O)(=O)N(CCC(=O)NO)Cc2ccc3c(c2)OCO3)cc1 [Compound 1464] | 111.0%
